Values quoted from earlier work as cited in US8592402B2, “Compounds as lysophosphatidic acid receptor antagonists” (Amira Pharmaceuticals, Inc., priority 2009, dated 2013).

Tests used:
nerve-injured mice = conditions: pretreatment
[1] = tested on: pancreatic cancer cell lines; conditions: in response to LPA and peritoneal fluid (ascites) from pancreatic cancer patients
UUO mice = conditions: compared with LPA1 (−/−) mice
[2] = tested on: mouse epithelial renal cell line, MCT; conditions: LPA treatment of MCT cells, co-treatment
[3] = tested on: human foetal lung fibroblasts
[4] = tested on: highly peritoneal metastatic pancreatic cancer cell line; conditions: LPA-induced and ascites-induced

| Compound | allodynia and hyperalgesia (nerve-injured mice) | in vitro migration [1] | development of renal fibrosis (UUO mice) | induction of CTGF expression [2] | fibroblast chemotactic activity ([3]; bronchoalveolar lavage samples of human subjects with IPF) | chemotaxis of human foetal lung fibroblasts ([3]; induced by BAL obtained from IPF patients) | invasion activity [4] |
| --- | --- | --- | --- | --- | --- | --- | --- |
| C[C@@H](N)[C@H]1CC[C@H](C(=O)Nc2ccncc2)CC1 [Compound Y-27632] | completely abolished |  |  |  |  |  |  |
| Cc1noc(-c2ccc(CSCCC(=O)O)cc2)c1NC(=O)OC(C)c1ccccc1Cl (stereo not shown) [Ki16425] |  | effectively blocked | closely resembled the LPA1 (−/−) mice | almost completely suppressed | inhibited | blocked | blocked |
